For 16 compounds, EC50 and Ki results are on record in patent US10968236B2, “TYK2 inhibitors and uses thereof” (Nimbus Lakshmi, Inc., priority 2015, dated 2021).

The test system of assay [1] is GM-CSF induced pSTAT5 (JAK2-pSTAT5). The assay is described as follows: GM-CSF Induced pSTAT5 in human PBMC. The class given is cell-based. The note with it: GM-CSF 5 ng/mL. How it is done: GM-CSF Induced pSTAT5 in human PBMC. Cells are prepared for analysis as in the above procedure and 15 μl of GM-CSF (final concentration 5 ng/mL) is added for 20 minutes prior to pSTAT5 and total STAT5 analysis using cell lysates prepared and analyzed by MSD reagents as per manufacturer protocol. The final DMSO concentration of compound in the assay is 0.1%.
(§1) The compound numbers correspond to the compound numbers in Table 1. Compounds having an activity designated as “A” provided an EC50≤2 μM; compounds having an activity designated as “B” provided a EC50 of 2-20 μM, and compounds having an activity designated as “C” provided an EC50>20 μM.

Assay [2] addresses JAK2 (Homo sapiens (Human), UniProt O60674). The assay is described as follows: JAK2 activity inhibition assay (radioactive kinase / Caliper assay). The class given is biochemical.
Assay [3] concerns IL-12 induced pSTAT4 (Tyk2-pSTAT4). Briefly: IL-12 Induced pSTAT4 in human PBMC. The class given is cell-based. The note with it: IL-12 1.7 ng/mL. How it is done: IL-12 Induced pSTAT4 in human PBMC. Human PBMC are isolated from buffy coat and are stored frozen for assays as needed. Cells for assay are thawed and resuspended in complete media containing serum, then cells are diluted to 1.67 E6 cells/ml so that 120 μl per well is 200,000 cells. 15 μl of compound or DMSO is added to the well at the desired concentrations and incubated at 1 hr at 37 C. 15 μl of stimulus (final concentration of 1.7 ng/mL IL-12) is added for 30 minutes prior to pSTAT4 and total STAT4 analysis using cell lysates prepared and analyzed by MSD reagents as per manufacturer protocol. The final DMSO concentration of compound in the assay is 0.1%.
as §1

Assay [4] concerns the target TYK2 (Homo sapiens (Human), UniProt P29597). Briefly: Tyk2 activity inhibition assay (radioactive kinase / Caliper assay). The class given is biochemical.

Chain of JAK2 (O60674 whole entry): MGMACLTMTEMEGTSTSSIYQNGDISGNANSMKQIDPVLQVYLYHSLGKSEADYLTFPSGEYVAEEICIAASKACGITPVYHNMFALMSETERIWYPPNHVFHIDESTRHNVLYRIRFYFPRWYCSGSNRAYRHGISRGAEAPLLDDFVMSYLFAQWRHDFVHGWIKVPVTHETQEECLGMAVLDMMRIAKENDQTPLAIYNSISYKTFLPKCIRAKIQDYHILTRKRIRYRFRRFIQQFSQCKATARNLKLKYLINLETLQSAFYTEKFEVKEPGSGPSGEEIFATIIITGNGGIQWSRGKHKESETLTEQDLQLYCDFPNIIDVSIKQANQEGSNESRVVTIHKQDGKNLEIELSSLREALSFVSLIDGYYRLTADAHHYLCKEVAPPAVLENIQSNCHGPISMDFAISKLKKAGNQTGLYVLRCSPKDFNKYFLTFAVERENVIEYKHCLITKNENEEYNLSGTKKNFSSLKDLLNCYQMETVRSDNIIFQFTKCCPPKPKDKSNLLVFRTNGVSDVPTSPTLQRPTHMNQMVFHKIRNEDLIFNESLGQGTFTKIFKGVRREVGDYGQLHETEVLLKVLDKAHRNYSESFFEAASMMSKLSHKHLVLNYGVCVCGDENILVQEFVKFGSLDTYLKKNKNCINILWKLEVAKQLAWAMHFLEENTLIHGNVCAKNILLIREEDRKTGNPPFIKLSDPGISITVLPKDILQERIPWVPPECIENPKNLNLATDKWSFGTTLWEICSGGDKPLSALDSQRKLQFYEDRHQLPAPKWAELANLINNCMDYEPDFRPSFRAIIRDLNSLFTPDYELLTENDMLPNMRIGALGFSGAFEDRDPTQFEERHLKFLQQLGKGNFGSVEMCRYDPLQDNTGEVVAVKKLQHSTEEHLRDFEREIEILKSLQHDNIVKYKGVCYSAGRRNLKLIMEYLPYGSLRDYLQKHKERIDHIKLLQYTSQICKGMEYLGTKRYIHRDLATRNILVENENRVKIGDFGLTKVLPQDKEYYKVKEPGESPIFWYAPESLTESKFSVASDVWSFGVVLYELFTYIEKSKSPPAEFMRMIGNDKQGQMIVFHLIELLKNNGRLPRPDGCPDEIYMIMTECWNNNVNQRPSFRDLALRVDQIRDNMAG
Chain of TYK2 (P29597 whole entry): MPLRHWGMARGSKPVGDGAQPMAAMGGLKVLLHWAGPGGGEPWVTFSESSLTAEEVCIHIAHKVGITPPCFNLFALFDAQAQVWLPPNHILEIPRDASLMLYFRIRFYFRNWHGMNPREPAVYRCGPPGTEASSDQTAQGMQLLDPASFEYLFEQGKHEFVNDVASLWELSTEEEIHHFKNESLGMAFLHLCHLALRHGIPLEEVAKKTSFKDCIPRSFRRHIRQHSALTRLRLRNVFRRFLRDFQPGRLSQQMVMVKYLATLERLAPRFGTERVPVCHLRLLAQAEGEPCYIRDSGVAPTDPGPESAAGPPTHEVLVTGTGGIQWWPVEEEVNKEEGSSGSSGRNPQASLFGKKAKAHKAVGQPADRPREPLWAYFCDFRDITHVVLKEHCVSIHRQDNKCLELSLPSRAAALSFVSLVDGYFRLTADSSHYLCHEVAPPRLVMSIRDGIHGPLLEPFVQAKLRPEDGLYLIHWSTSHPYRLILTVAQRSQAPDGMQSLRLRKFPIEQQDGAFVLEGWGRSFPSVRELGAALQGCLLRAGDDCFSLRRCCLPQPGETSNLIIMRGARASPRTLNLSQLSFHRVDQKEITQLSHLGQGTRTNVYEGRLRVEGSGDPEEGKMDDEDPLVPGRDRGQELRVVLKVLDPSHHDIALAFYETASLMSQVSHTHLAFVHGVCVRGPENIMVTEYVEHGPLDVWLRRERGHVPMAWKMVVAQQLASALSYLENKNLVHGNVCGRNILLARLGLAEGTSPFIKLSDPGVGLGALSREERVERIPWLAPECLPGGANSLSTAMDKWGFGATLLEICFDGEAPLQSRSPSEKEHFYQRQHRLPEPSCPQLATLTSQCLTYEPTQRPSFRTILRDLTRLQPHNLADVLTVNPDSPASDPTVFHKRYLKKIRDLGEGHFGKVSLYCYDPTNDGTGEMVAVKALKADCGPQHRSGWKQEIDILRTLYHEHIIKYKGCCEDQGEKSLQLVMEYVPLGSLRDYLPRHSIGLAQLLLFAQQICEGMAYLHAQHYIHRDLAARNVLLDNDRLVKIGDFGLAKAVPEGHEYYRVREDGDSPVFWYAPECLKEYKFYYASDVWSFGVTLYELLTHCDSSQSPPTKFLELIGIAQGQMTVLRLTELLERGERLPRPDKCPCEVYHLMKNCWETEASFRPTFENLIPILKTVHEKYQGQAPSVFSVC

As to `O=C1CCOc2cc(Nc3cc(-c4c(F)cccc4F)nc4c3C(=O)NC4)ccc21` [Compound I-72, 2-(2,6-difluorophenyl)-4-((4-oxochroman-7-yl)amino)-6,7-dihy-dro-5H-pyrrolo[3,4-b]pyridin-5-one], the 50% effective concentration (EC50) in assay [1] and in assay [3] was greater than 20000 nM each time. Also, the Ki (as a rule, a measure of affinity in units of concentration, obtained from inhibition or displacement) in assay [2] was no less than 1000 nM; in assay [4], 10 to 100 nM.

As to `O=C1NCc2nc(-c3c(F)cccc3F)cc(Nc3ccc(C(=O)N4CCC5(CCOCC5)CC4)cc3)c21` [Compound I-58, 4-((4-(3-oxa-9-azaspiro[5.5]undecane-9-carbonyl)phenyl)amino)-2-(2,6-difluorophenyl)-6,7-dihydro-5H-pyrrolo[3,4-b]pyridin-5-one], the concentration giving a half-maximal response (EC50) (in general, the midpoint of the concentration-response curve) was 2000 to 20000 nM in assay [1] and no more than 2000 nM in assay [3]. Besides, the Ki in assay [2] and in assay [4] was no more than 10 nM in each case.

As for `O=C1NCc2nc(-c3c(F)cccc3F)cc(Nc3ccc(N4CCC5(CC4)CC5)cn3)c21` [Compound I-20, 4-((5-(6-azaspiro[2.5]octan-6-yl)pyridin-2-yl)amino)-2-(2,6-difluorophenyl)-6,7-dihydro-5H-pyrrolo[3,4-b]pyridin-5-one], the EC50 is greater than 20000 nM in assay [1] and no more than 2000 nM in assay [3]. The inhibitory constant (Ki) in assay [2] is 10 to 100 nM; in assay [4], no more than 10 nM.

Regarding `O=C1NCc2nc(-c3c(F)cccc3F)cc(Nc3ccc(N4C[C@H]5CC[C@@H](C4)O5)cn3)c21` [Compound I-4, 4-((5-((1R,5S)-8-oxa-3-azabicyclo[3.2.1]octan-3-yl)pyridin-2-yl)amino)-2-(2,6-difluorophenyl)-6,7-dihydro-5H-pyrrolo[3,4-b]pyridin-5-one], the EC50 in assay [1] and in assay [3] was no more than 2000 nM throughout. In addition, the Ki in assay [2] is 10 to 100 nM; in assay [4], no more than 10 nM.

As to `O=C1NCc2nc(-c3c(F)cccc3F)nc(Nc3ccc4c(c3)NCC4)c21` [Compound I-1, 2-(2,6-difluorophenyl)-4-(indolin-6-ylamino)-6,7-dihydro-5H-pyrrolo[3,4-d]pyrimidin-5-one], the EC50 in assay [1] is 2000 to 20000 nM; in assay [3], no more than 2000 nM. Further, the inhibition constant (Ki) is 100 to 1000 nM in assay [2] and no more than 10 nM in assay [4].

As for `N#Cc1cccc(F)c1-c1cc(Nc2ccc(N3CCC4(CC(O)CO4)C3)cn2)c2c(n1)CNC2=O` (stereo in doubt) [Compound I-89, 3-fluoro-2-(4-((5-((3S,5R)-3-hydroxy-1-oxa-7-azaspiro[4.4]nonan-7-yl)pyridin-2-yl)amino)-5-oxo-6,7-dihydro-5H-pyrrolo[3,4-b]pyridin-2-yl)benzonitrile], the concentration for a half-maximal effect (EC50) in assay [1] and in assay [3] was no more than 2000 nM in each case. Besides, the Ki in assay [2] and in assay [4] was no more than 10 nM throughout.

With `O=C1NCc2nc(-c3c(F)cccc3F)cc(Nc3ccc4c(n3)NCCCO4)c21` [Compound I-18, 2-(2,6-difluorophenyl)-4-((2,3,4,5-tetrahydropyrido[3,2-b][1,4]oxazepin-7-yl)amino)-6,7-dihydro-5H-pyrrolo[3,4-b]pyridin-5-one], the concentration for a half-maximal effect (EC50) in assay [1] was 2000 to 20000 nM; in assay [3], no more than 2000 nM. Also, the results for the inhibition constant (Ki) in assay [2] and in assay [4] were 10 to 100 nM and no more than 10 nM, respectively.

For the compound `O=C1NCc2nc(-c3c(F)cccc3F)cc(Nc3ccc(N4CCC5(CC4)OCCO5)cn3)c21` [Compound I-62, 4-((5-(1,4-dioxa-8-azaspiro[4.5]decan-8-yl)pyridin-2-yl)amino)-2-(2,6-difluorophenyl)-6,7-dihydro-5H-pyrrolo[3,4-b]pyridin-5-one], the EC50 in assay [1] and in assay [3] was no more than 2000 nM in each case. For the same compound, the inhibition constant (Ki) in assay [2] was 10 to 100 nM; in assay [4], no more than 10 nM.

As for `O=C1NCc2nc(-c3c(F)cccc3F)cc(Nc3ccc(N4C[C@H]5COC[C@H]5C4)cn3)c21` [Compound I-59, 2-(2,6-difluorophenyl)-4-((5-((3aR,6aS)-tetrahydro-1H-furo[3,4-c]pyrrol-5(3H)-yl)pyridin-2-yl)amino)-6,7-dihydro-5H-pyrrolo[3,4-b]pyridin-5-one], the concentration giving a half-maximal response (EC50) in assay [1] is 2000 to 20000 nM; in assay [3], no more than 2000 nM. Also, the inhibition constant Ki in assay [2] was 10 to 100 nM; in assay [4], no more than 10 nM.

Turning to `O=C1NCc2nc(-c3c(F)cccc3F)cc(Nc3cc4c(cn3)CCN4)c21` [Compound I-17, 2-(2,6-difluorophenyl)-4-((2,3-dihydro-1H-pyrrolo[3,2-c]pyridin-6-yl)amino)-6,7-dihydro-5H-pyrrolo[3,4-b]pyridin-5-one], the concentration for a half-maximal effect (EC50) in assay [1] is 2000 to 20000 nM; in assay [3] it was no more than 2000 nM. The Ki was 10 to 100 nM in assay [2] and no more than 10 nM in assay [4].

In the case of `O=C1NCc2nc(-c3c(F)cccc3F)cc(Nc3ccc(N4CCC5(CCOC5)CC4)cn3)c21` [Compound I-52, 4-((5-(2-oxa-8-azaspiro[4.5]decan-8-yl)pyridin-2-yl)amino)-2-(2,6-difluorophenyl)-6,7-dihydro-5H-pyrrolo[3,4-b]pyridin-5-one], the concentration for a half-maximal effect (EC50) in assay [1] and in assay [3] was no more than 2000 nM each time. Also, the inhibitory constant (Ki) in assay [2] and in assay [4] was no more than 10 nM in each case.

As to `N#Cc1cc(F)c(-c2cc(Nc3ccc(N4CCC5(CC4)CC5)cn3)c3c(n2)CNC3=O)c(F)c1` [Compound I-60, 4-(4-((5-(6-azaspiro[2.5]octan-6-yl)pyridin-2-yl)amino)-5-oxo-6,7-dihydro-5H-pyrrolo[3,4-b]pyridin-2-yl)-3,5-difluorobenzonitrile], the half-maximal effective concentration (EC50) in assay [1] was 2000 to 20000 nM; in assay [3], no more than 2000 nM. In addition, the Ki in assay [2] is 10 to 100 nM; in assay [4] it was no more than 10 nM.

For the compound `O=C1NCc2nc(-c3c(F)cccc3F)cc(Nc3ccc(N4CCC5(CCO5)CC4)cn3)c21` [Compound I-25, 4-((5-(1-oxa-7-azaspiro[3.5]nonan-7-yl)pyridin-2-yl)amino)-2-(2,6-difluorophenyl)-6,7-dihydro-5H-pyrrolo[3,4-b]pyridin-5-one], the values for the EC50 in assay [1] and in assay [3] were 2000 to 20000 nM and no more than 2000 nM, respectively. Further, the Ki is 10 to 100 nM in assay [2] and no more than 10 nM in assay [4].

`CCNC(=O)C(C)(C)c1ccc(Nc2cc(-c3c(F)cccc3F)nc3c2C(=O)NC3)cc1` [Compound I-67, 2-(4-((2-(2,6-difluorophenyl)-5-oxo-6,7-dihydro-5H-pyrrolo[3,4-b]pyridin-4-yl)amino)phenyl)-N-ethyl-2-methylpropanamide]: the EC50 is 2000 to 20000 nM in assay [1] and no more than 2000 nM in assay [3]. The Ki in assay [2] and in assay [4] was no more than 10 nM throughout.

On to `O=C1NCc2c1c(Nc1ccc(C(=O)N3CCOCC3)cc1)cc(-c1c(F)cccc1F)[n+]2[O-]` [Compound I-84, 2-(2,6-difluorophenyl)-4-((4-(morpholine-4-carbonyl)phenyl)-amino)-5-oxo-6,7-dihydro-5H-pyrrolo[3,4-b]pyridine 1-oxide], for which the half-maximal effective concentration (EC50) in assay [1] and in assay [3] was greater than 20000 nM each time. Besides, the Ki in assay [2] is no less than 1000 nM; in assay [4] it was 10 to 100 nM.

For `N#Cc1cccc(F)c1-c1cc(Nc2ccc(N3CCC4(C[C@H](O)CO4)C3)cn2)c2c(n1)CNC2=O` (stereo in doubt) [Compound I-91, 3-fluoro-2-(4-((5-((3S,5S)-3-hydroxy-1-oxa-7-azaspiro[4.4]nonan-7-yl)pyridin-2-yl)amino)-5-oxo-6,7-dihydro-5H-pyrrolo[3,4-b]pyridin-2-yl)benzonitrile], the EC50 in assay [1] and in assay [3] was no more than 2000 nM each time. In addition, the inhibition constant Ki in assay [2] and in assay [4] was no more than 10 nM throughout.
